Data on 22 molecules can be found in patent publication US8912216B2, “Hetaryl-[1,8]naphthyridine derivatives” (Merck Patent GmbH, priority 2010, dated 2014).

In assay [1] the test system is TGF-beta-induced phosphorylation of Smad2 and Smad3 in Mv1-Lu cells. Briefly: Inhibition of Smad2/3 phosphorylation in Mv1Lu cells (Example 35A). In kind it is cell-based, mink Mustela vison. The following applies: Neogale vison, Mv1-Lu cells, TGF-beta 1 5 ng/ml, phospho-Smad2/3 ELISA, read-out: TβR activity (Example 35A). In short, it runs like this: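 Serum-starved (16-20 h) Mv1-Lu mink lung epithelial cells were pre-incubated 1.5 h with compound dilutions (0.2% DMSO), then stimulated 1 h with 5 ng/ml TGF-beta 1. Phospho-Smad2 (Ser465/467)/Smad3 (Ser423/425) in lysates was measured by ELISA. IC50 came from dose-response fits between stimulated and unstimulated controls.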
(In general: ELISA stands for enzyme-linked immunosorbent assay.)

Assay [2] deals with T1, GST-ALK5 (Homo sapiens, UniProt P36897).
T1 sequence (P36897 34-503): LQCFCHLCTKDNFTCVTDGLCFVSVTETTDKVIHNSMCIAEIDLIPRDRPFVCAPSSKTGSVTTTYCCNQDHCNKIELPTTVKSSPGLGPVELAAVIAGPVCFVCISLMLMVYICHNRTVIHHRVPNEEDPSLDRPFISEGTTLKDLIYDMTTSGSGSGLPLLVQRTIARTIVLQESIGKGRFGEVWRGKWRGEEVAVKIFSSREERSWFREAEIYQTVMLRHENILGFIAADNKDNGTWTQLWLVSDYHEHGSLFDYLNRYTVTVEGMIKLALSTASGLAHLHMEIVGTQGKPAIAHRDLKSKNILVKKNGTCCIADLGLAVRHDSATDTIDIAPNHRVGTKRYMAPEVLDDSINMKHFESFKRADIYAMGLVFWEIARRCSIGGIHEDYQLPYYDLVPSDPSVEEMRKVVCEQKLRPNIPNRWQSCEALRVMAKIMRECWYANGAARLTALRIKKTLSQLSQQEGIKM
Briefly: In-vitro (enzyme) kinase assay, 384-well flashplate (Example 36). In kind it is biochemical. The following applies: GST-ALK5, GST-SMAD2 substrate, 3 mM ATP, 30° C., 45 min; read-out: TβR activity (Example 36). In short, it runs like this:
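Radiometric flashplate assay: 31.2 nM GST-ALK5 phosphorylating 439 nM GST-SMAD2 with 3 mM ATP plus ³³P-ATP, in HEPES/MgCl2/MnCl2/DTT/BSA buffer pH 7.4, 45 min at 30 °C, 5-10 compound concentrations. EDTA stop, filtration and washing, then radioactivity counted; IC50 derived from the curve.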

On to `CN1CCN(c2ccc(-c3cncc(-c4cc(-c5cc(Cl)ccc5F)nc5ncccc45)c3)cn2)CC1` [compound 93, 2-(5-Chloro-2-fluoro-phenyl)-4-[6′-(4-methyl-piperazin-1-yl)-[3,3′]bipyridinyl-5-yl]-[1,8]naphthyridine], for which the IC50 in assay [1] and in assay [2] was less than 0.1 µM each time.

Take `NCCOc1cccc(-c2cncc(-c3cc(-c4cc(Cl)ccc4F)nc4ncccc34)c2)c1` [compound 143, 2-(3-{5-[2-(5-Chloro-2-fluoro-phenyl)-[1,8]naphthyridin-4-yl]-pyridin-3-yl}-phenoxy)-ethylamine]: the values for the IC50 in assay [1] and in assay [2] were 0.1 to 1 µM and less than 0.1 µM, respectively.

Consider `Nc1ncc(-c2cc(-c3cc(F)ccc3F)nc3ncccc23)c2ccncc12` [compound 73, 4-[2-(2,5-Difluoro-phenyl)-[1,8]naphthyridin-4-yl]-[2,7]naphthyridin-1-ylamine], for which the IC50 in assay [1] and in assay [2] was less than 0.1 µM throughout.

As for `Cn1cc(-c2cncc(-c3cc(-c4cc(F)c(F)cc4F)nc4ncccc34)c2)cn1` [compound 17, 4-[5-(1-Methyl-1H-pyrazol-4-yl)-pyridin-3-yl]-2-(2,4,5-trifluoro-phenyl)-[1,8]naphthyridine], the IC50 in assay [1] lay within 1 to 10 µM; in assay [2], 0.1 to 1 µM.

For the molecule `CC(=O)Nc1ncc(-c2cc(-c3ccccc3F)nc3ncccc23)c2ccncc12` [compound 74, N-{4-[2-(2-fluoro-phenyl)-[1,8]naphthyridin-4-yl]-[2,7]naphthyridin-1-yl}-acetamide], the IC50 in assay [1] was 1 to 10 µM; in assay [2] it was 0.1 to 1 µM.

Consider `CC(C)(C)OC(=O)Nc1cc(-c2cncc(-c3cc(-c4cc(Cl)ccc4F)nc4ncccc34)c2)ccn1` [compound 112, {5-[2-(5-Chloro-2-fluoro-phenyl) [1,8]naphthyridin-4-yl]-[3,4′]bipyridinyl-2′-yl}-carbamic acid tert-butyl ester], for which the IC50 in assay [1] and in assay [2] was 0.1 to 1 µM in each case.

As to `CN1CCN(c2ccc(-c3cc(-c4cc(-c5cc(Cl)ccc5F)nc5ncccc45)cnn3)cc2)CC1` [compound 117, 2-(5-Chloro-2-fluoro-phenyl)-4-{6-[4-(4-methyl-piperazin-1-yl)-phenyl]-pyridazin-4-yl}-[1,8]naphthyridine], the IC50 in assay [1] and in assay [2] was 0.1 to 1 µM in each case.

As for `Fc1ccc(Cl)cc1-c1cc(-c2cncc(-c3ccc(OCCN4CCOCC4)cc3)c2)c2cccnc2n1` [compound 161, 2-(5-Chloro-2-fluoro-phenyl)-4-{5-[4-(2-morpholin-4-yl-ethoxy)-phenyl]-pyridin-3-yl}-[1,8]naphthyridine], the IC50 in assay [1] and in assay [2] was less than 0.1 µM throughout.

Regarding `Fc1ccc(Cl)cc1-c1cc(-c2cncc(-c3cnn(CCN4CCCC4)c3)c2)c2cccnc2n1` [compound 21, 2-(5-Chloro-2-fluoro-phenyl)-4-{5-[1-(2-pyrrolidin-1-yl-ethyl)-1H-pyrazol-4-yl]-pyridin-3-yl}-[1,8]naphthyridine], the IC50 in assay [1] and in assay [2] was less than 0.1 µM in each case.

Turning to `Fc1ccc(F)c(-c2cc(-c3cncc(-c4cnn(CCCN5CCOCC5)c4)c3)c3cccnc3n2)c1` [compound 48, 2-(2,5-Difluoro-phenyl)-4-{5-[1-(3-morpholin-4-yl-propyl)-1H-pyrazol-4-yl]-pyridin-3-yl}-[1,8]naphthyridine], the IC50 in assay [1] was 0.1 to 1 µM; in assay [2], less than 0.1 µM.

Regarding `CN(C)CCc1ccc(-c2cncc(-c3cc(-c4cc(Cl)ccc4F)nc4ncccc34)c2)cc1` [compound 162, [2-(4-{5-[2-(5-Chloro-2-fluoro-phenyl)-[1,8]naphthyridin-4-yl]-pyridin-3-yl}-phenyl)-ethyl]-dimethyl-amine], the IC50 in assay [1] and in assay [2] was less than 0.1 µM in each case.

On to `Fc1ccccc1-c1cc(-c2cncc(-c3cccnc3)c2)c2cccnc2n1` [compound 125, 4-[3,3′]Bipyridinyl-5-yl-2-(2-fluoro-phenyl)-[1,8]naphthyridine], for which the IC50 in assay [1] and in assay [2] was 1 to 10 µM in each case.

In the case of `OCCN1CCC(n2cc(-c3cncc(-c4cc(-c5ccccc5F)nc5ncccc45)c3)cn2)CC1` [compound 53, 2-[4-(4-{5-[2-(2-Fluoro-phenyl)-[1,8]naphthyridin-4-yl]-pyridin-3-yl}-pyrazol-1-yl)-piperidin-1-yl]-ethanol], the IC50 in assay [1] and in assay [2] was less than 0.1 µM throughout.

For the molecule `Fc1ccccc1-c1cc(-c2cncc(-c3cnn(CCCN4CCOCC4)c3)c2)c2cccnc2n1` [compound 87, 2-(2-Fluoro-phenyl)-4-{5-[1-(3-morpholin-4-yl-propyl)-1H-pyrazol-4-yl]-pyridin-3-yl}-[1,8]naphthyridine], the IC50 in assay [1] was 0.1 to 1 µM; in assay [2], less than 0.1 µM.

On to `Fc1ccc(Cl)cc1-c1cc(-c2cncc(-c3ccccc3)c2)c2ccccc2n1` [compound 6, 2-(5-Chloro-2-fluoro-phenyl)-4-(5-phenyl-pyridin-3-yl)-quinoline], for which the IC50 in assay [1] was greater than 10 µM; in assay [2], 1 to 10 µM.

Turning to `Fc1ccc(Cl)cc1-c1cc(-c2cncc(-c3ccc(N4CCNCC4)cc3)c2)c2cccnc2n1` [compound 94, 2-(5-Chloro-2-fluoro-phenyl)-4-[5-(4-piperazin-1-yl-phenyl)-pyridin-3-yl]-[1,8]naphthyridine], the IC50 in assay [1] and in assay [2] was less than 0.1 µM in each case.

As for `Fc1ccc(F)c(-c2cc(-c3cncc(-c4cnn(C5CCNCC5)c4)c3)c3cccnc3n2)c1` [compound 47, 2-(2,5-Difluoro-phenyl)-4-[5-(1-piperidin-4-yl-1H-pyrazol-4-yl)-pyridin-3-yl]-[1,8]naphthyridine], the IC50 in assay [1] and in assay [2] was less than 0.1 µM throughout.

On to `CC(=O)Nc1cccc(-c2cncc(-c3cc(-c4cc(Cl)ccc4F)nc4ncccc34)c2)n1` [compound 115, N-{5′-[2-(5-Chloro-2-fluoro-phenyl)-[1,8]naphthyridin-4-yl]-[2,3′]bipyridinyl-6-yl}-acetamide], for which the IC50 in assay [1] was 0.1 to 1 µM; in assay [2] it was less than 0.1 µM.

With `Fc1ccc(Cl)cc1-c1cc(-c2cncc(-c3ccc(CCN4CCOCC4)cc3)c2)c2cccnc2n1` [compound 153, 2-(5-Chloro-2-fluoro-phenyl)-4-{5-[4-(2-morpholin-4-yl-ethyl)-phenyl]-pyridin-3-yl}-[1,8]naphthyridine], the IC50 in assay [1] and in assay [2] was less than 0.1 µM throughout.

Take `CCN1CCC(n2cc(-c3cncc(-c4cc(-c5cc(Cl)ccc5F)nc5ncccc45)c3)cn2)CC1` [compound 46, 2-(5-Chloro-2-fluoro-phenyl)-4-{5-[1-(1-ethyl-piperidin-4-yl)-1H-pyrazol-4-yl]-pyridin-3-yl}-[1,8]naphthyridine]: the IC50 in assay [1] and in assay [2] was less than 0.1 µM throughout.

`COCCN1CCC(n2cc(-c3cncc(-c4cc(-c5cc(Cl)ccc5F)nc5ncccc45)c3)cn2)CC1` [compound 44, 2-(5-chloro-2-fluoro-phenyl)-4-(5-{1-[1-(2-methoxy-ethyl)-piperidin-4-yl]-1H-pyrazol-4-yl}-pyridin-3-yl)-[1,8]naphthyridine]: the IC50 in assay [1] and in assay [2] was less than 0.1 µM throughout.

As to `Fc1ccccc1-c1cc(-c2cncc(-c3cnc4[nH]ncc4c3)c2)c2cccnc2n1` [compound 80, 2-(2-Fluoro-phenyl)-4-[5-(1H-pyrazolo[3,4-b]pyridin-5-yl)-pyridin-3-yl]-[1,8]naphthyridine], the IC50 in assay [1] and in assay [2] was 0.1 to 1 µM in each case.
